According to patent US10023558B2, “Compounds” (CHIESI FARMACEUTICI S.P.A., priority 2016, dated 2018):

What follows are compounds tested against T1, human neutrophil elastase (HNE) (Homo sapiens, UniProt P08246) (assay: HNE Enzyme Assay (fluorogenic peptide substrate MeOSuc-Ala-Ala-Pro-Val-AMC)). Conditions: human leukocyte elastase 0.00072 U/mL, substrate 100 μM, 25° C., 30 minutes, at least two separate experiments; read-out: HNE inhibition (IC50 values).
T1 construct: purchased Sigma E8140
T1 sequence (P08246 30-247 limits assumed): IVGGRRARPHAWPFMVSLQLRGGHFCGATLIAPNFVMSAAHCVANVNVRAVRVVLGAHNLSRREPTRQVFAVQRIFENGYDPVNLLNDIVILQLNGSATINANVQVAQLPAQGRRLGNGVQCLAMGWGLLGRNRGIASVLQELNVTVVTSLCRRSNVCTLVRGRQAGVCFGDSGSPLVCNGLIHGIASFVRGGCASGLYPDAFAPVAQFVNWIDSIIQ
Format: biochemical
Procedure, shortened: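 Human leukocyte elastase (0.00072 U/mL) with 100 μM MeOSuc-AAPV-AMC in Tris pH 7.5 buffer with NaCl, CaCl2, Brij-35, 1% DMSO, 30 min at 25° C, stopped with soybean trypsin inhibitor. AMC fluorescence (ex 380/em 460 nm); IC50 from concentration-response as % inhibition of control, at least two experiments.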

SMILES | IC50
Cc1c(-c2ccnn2-c2ccc(C#N)cc2)n(C(=O)N[C@H]2CCC[C@@H]2OCc2ccccc2)c(=O)n1-c1cccc(C(F)(F)F)c1 [Example 2, 5-[2-(4-Cyano-phenyl)-2H-pyrazol-3-yl]-4-methyl-2-oxo-3-(3-trifluoromethyl-phenyl)-2,3-dihydro-imidazole-1-carboxylic acid ((1S,2S)-2-benzyloxy-cyclopentyl)-amide] | 1 to 10 nM
CC[N+](C)(C)[C@H]1CC[C@@H](NC(=O)n2c(-c3ccnn3-c3ccc(C#N)cc3)c(C)n(-c3cccc(C(F)(F)F)c3)c2=O)CC1 [Example 48, (Cis-4-{[5-[2-(4-cyano-phenyl)-2H-pyrazol-3-yl]-4-methyl-2-oxo-3-(3-trifluoromethyl-phenyl)-2,3-dihydro-imidazole-1-carbonyl]-amino}-cyclohexyl)-ethyl-dimethyl-ammonium benzene sulfonate] | 1 to 10 nM
Cc1c(-c2ccnn2-c2ccc(C#N)cc2)n(C(=O)N[C@H]2CC[C@@H](C[N+](C)(C)C)CC2)c(=O)n1-c1cccc(C(F)(F)F)c1 [Example 53, (Cis-4-{[5-[2-(4-cyano-phenyl)-2H-pyrazol-3-yl]-4-methyl-2-oxo-3-(3-trifiuoromethyl-phenyl)-2,3-dihydro-imidazole-1-carbonyl]-amino}-cyclohexylmethyl)-trimethyl-ammonium benzene sulfonate] | 1 to 10 nM
Cc1c(-c2ccnn2-c2ccc(C#N)cc2)n(C(=O)N[C@H]2CC[C@H](NC(=O)CN(C)C)CC2)c(=O)n1-c1cccc(C(F)(F)F)c1 [Example 26, 5-[2-(4-Cyano-phenyl)-2H-pyrazol-3-yl]-4-methyl-2-oxo-3-(3-trifluoromethyl-phenyl)-2,3-dihydro-imidazole-1-carboxylic acid [trans-4-(2-dimethylamino-acetylamino)-cyclohexyl]-amide] | < 1 nM
Cc1c(-c2ccnn2-c2ccc(C#N)cc2)n(C(=O)N[C@H]2CC[C@H]([N+](C)(C)Cc3ncon3)CC2)c(=O)n1-c1cccc(C(F)(F)F)c1 [Example 72, (Trans-4-{[5-[2-(4-cyano-phenyl)-2H-pyrazol-3-yl]-4-methyl-2-oxo-3-(3-trifluoromethyl-phenyl)-2,3-dihydro-imidazole-1-carbonyl]-amino}-cyclohexyl)-dimethyl-[1,2,4]oxadiazol-3-ylmethyl-amnionium chloride] | < 1 nM
Cc1c(-c2ccnn2-c2ccc(C#N)cc2)n(C(=O)NC2CCN(C(=O)C(F)(F)F)CC2)c(=O)n1-c1cccc(C(F)(F)F)c1 [Example 4, 5-[2-(4-Cyano-phenyl)-2H-pyrazol-3-yl]-4-methyl-2-oxo-3-(3-trifluoromethyl-phenyl)-2,3-dihydro-imidazole-1-carboxylic acid [1-(2,2,2-trifluoro-acetyl)-piperidin-4-yl]-amide] | < 1 nM
Cc1c(-c2ccnn2-c2ccc(C#N)cc2)n(C(=O)N[C@@H](C)C(=O)NC2CC[N+](C)(C)CC2)c(=O)n1-c1cccc(C(F)(F)F)c1 [Example 57, 4-((S)-2-{[5-[2-(4-Cyano-phenyl)-2H-pyrazol-3-yl]-4-methyl-2-oxo-3-(3-trifluoromethyl-phenyl)-2,3-dihydro-imidazole-1-carbonyl]-amino}-propionylamino)-1,1-dimethyl-piperidinium benzene sulfonate] | < 1 nM
Cc1c(-c2ccnn2-c2ccc(C#N)cc2)n(C(=O)NC2(C)CCN(C(=O)C[N+](C)(C)C)CC2)c(=O)n1-c1cccc(C(F)(F)F)c1 [Example 84, [2-(4-{[5-[2-(4-Cyano-phenyl)-2H-pyrazol-3-yl]-4-methyl-2-oxo-3-(3-trifluoromethyl-phenyl)-2,3-dihydro-imidazole-1-carbonyl]-amino}-4-methyl-piperidin-1-yl)-2-oxo-ethyl]-trimethyl-ammonium benzene sulfonate] | < 1 nM
Cc1c(-c2ccnn2-c2ccc(C#N)cc2)n(C(=O)N[C@H]2C[C@H]3CC[C@@H](C2)[N+]3(C)C)c(=O)n1-c1cccc(C(F)(F)F)c1 [Example 36, (1S,3R,5R)-3-{[5-[2-(4-Cyano-phenyl)-2H-pyrazol-3-yl]-4-methyl-2-oxo-3-(3-trifluoromethyl-phenyl)-2,3-dihydro-imidazole-1-carbonyl]-amino}-8,8-dimethyl-8-azonia-bicyclo[3.2.1]octane benzene sulfonate] | < 1 nM

Other lines, results leading:

IC50 | SMILES
< 1 nM | Cc1c(-c2ccnn2-c2ccc(C#N)cc2)n(C(=O)N[C@H]2CC[C@H](C(=O)N(C)CC[N+](C)(C)C)CC2)c(=O)n1-c1cccc(C(F)(F)F)c1 [Example 89, {2-[(Trans-4-{[5-[2-(4-cyano-phenyl)-2H-pyrazol-3-yl]-4-methyl-2-oxo-3-(3-trifluoromethyl-phenyl)-2,3-dihydro-imidazole-1-carbonyl]-amino}-cyclohexanecarbonyl)-methyl-amino]-ethyl}-trimethyl-ammonium benzene sulfonate]
< 1 nM | Cc1c(-c2ccnn2-c2ccc(C#N)cc2)n(C(=O)N[C@@H]2C[C@H]3CC[C@@H](C2)[N+]3(C)C)c(=O)n1-c1cccc(C(F)(F)F)c1 [Example 39, (1R,3S,5S)-3-{[5-[2-(4-Cyano-phenyl)-2H-pyrazol-3-yl]-4-methyl-2-oxo-3-(3-trifluoromethyl-phenyl)-2,3-dihydro-imidazole-1-carbonyl]-amino}-8,8-dimethyl-8-azonia-bicyclo[3.2.1]octane benzene sulfonate]
< 1 nM | Cc1c(-c2ccnn2-c2ccc(C#N)cc2)n(C(=O)N[C@@H](C)C(=O)N(C)CC[N+](C)(C)C)c(=O)n1-c1cccc(C(F)(F)F)c1 [Example 71, {2-[((S)-2-{[5-[2-(4-Cyano-phenyl)-2H-pyrazol-3-yl]-4-methyl-2-oxo-3-(3-trifluoromethyl-phenyl)-2,3-dihydro-imidazole-1-carbonyl]-amino}-propionyl)-methyl-amino]-ethyl}-trimethyl-ammonium benzene sulfonate]
< 1 nM | Cc1c(-c2ccnn2-c2ccc(C#N)cc2)n(C(=O)N[C@H]2CC[C@H](C(=O)N3CCC([N+](C)(C)C)CC3)CC2)c(=O)n1-c1cccc(C(F)(F)F)c1 [Example 88, [1-(Trans-4-{[5-[2-(4-cyano-phenyl)-2H-pyrazol-3-yl]-4-methyl-2-oxo-3-(3-trifiuoromethyl-phenyl)-2,3-dihydro-imidazole-1-carbonyl]-amino}-cyclohexanecarbonyl)-piperidin-4-yl]-trimethyl-ammonium benzene sulfonate]
< 1 nM | Cc1c(-c2ccnn2-c2ccc(C#N)cc2)n(C(=O)N[C@@H](C)c2ccncc2)c(=O)n1-c1cccc(C(F)(F)F)c1 [Example 5, 5-[2-(4-Cyano-phenyl)-2H-pyrazol-3-yl]-4-methyl-2-oxo-3-(3-trifluoromethyl-phenyl)-2,3-dihydro-imidazole-1-carboxylic acid ((S)-1-pyridin-4-yl-ethyl)-amide]
< 1 nM | Cc1cc(C[N+](C)(C)[C@H]2CC[C@H](NC(=O)n3c(-c4ccnn4-c4ccc(C#N)cc4)c(C)n(-c4cccc(C(F)(F)F)c4)c3=O)CC2)n(C)n1 [Example 76, (4-{[5-[2-(4-Cyano-phenyl)-2H-pyrazol-3-yl]-4-methyl-2-oxo-3-(3-trifluoromethyl-phenyl)-2,3-dihydro-imidazole-1-carbonyl]-amino}-cyclohexyl)-(2,5-dimethyl-2H-pyrazol-3-ylmethyl)-dimethyl-ammonium chloride]
< 1 nM | Cc1c(-c2ccnn2-c2ccc(C#N)cc2)n(C(=O)N[C@@H](C)C(=O)N(C)C2CCN(C)CC2)c(=O)n1-c1cccc(C(F)(F)F)c1 [Example 28, 5-[2-(4-Cyano-phenyl)-2H-pyrazol-3-yl]-4-methyl-2-oxo-3-(3-trifluoromethyl-phenyl)-2,3-dihydro-imidazole-1-carboxylic acid {(S)-1-[methyl-(1-methyl-piperidin-4-yl)-carbamoyl]-ethyl}-amide]
< 1 nM | CC[C@H](NC(=O)n1c(-c2ccnn2-c2ccc(C#N)cc2)c(C)n(-c2cccc(C(F)(F)F)c2)c1=O)c1ncc(CN(C)C)o1 [Example 22, 5-[2-(4-Cyano-phenyl)-2H-pyrazol-3-yl]-4-methyl-2-oxo-3-(3-trifluoromethyl-phenyl)-2,3-dihydro-imidazole-1-carboxylic acid [(S)-1-(5-dimethylaminomethyl-oxazol-2-yl)-propyl]-amide]
< 1 nM | Cc1c(-c2ccnn2-c2ccc(C#N)cc2)n(C(=O)N[C@H]2CC[C@H](C(=O)OCC[N+](C)(C)C)CC2)c(=O)n1-c1cccc(C(F)(F)F)c1 [Example 82, [2-(Trans-4-{[5-[2-(4-cyano-phenyl)-2H-pyrazol-3-yl]-4-methyl-2-oxo-3-(3-trifluoromethyl-phenyl)-2,3-dihydro-imidazole-1-carbonyl]-amino}-cyclohexanecarbonyloxy)-ethyl]-trimethyl-ammonium benzene sulfonate]
< 1 nM | Cc1c(-c2ccnn2-c2ccc(C#N)cc2)n(C(=O)N[C@@H](C)c2nc(C[N+](C)(C)C)no2)c(=O)n1-c1cccc(C(F)(F)F)c1 [Example 60, [5-((S)-1-{[5-[2-(4-Cyano-phenyl)-2H-pyrazol-3-yl]-4-methyl-2-oxo-3-(3-trifluoromethyl-phenyl)-2,3-dihydro-imidazole-1-carbonyl]-amino}-ethyl)-[1,2,4]oxadiazol-3-ylmethyl]-trimethyl-ammonium benzene sulfonate]
< 1 nM | Cc1c(-c2ccnn2-c2ccc(C#N)cc2)n(C(=O)NC2(C)CCN(C(=O)CN(C)C)CC2)c(=O)n1-c1cccc(C(F)(F)F)c1 [Example 25, 5-[2-(4-Cyano-phenyl)-2H-pyrazol-3-yl]-4-methyl-2-oxo-3-(3-trifluoromethyl-phenyl)-2,3-dihydro-imidazole-1-carboxylic acid [1-(2-dimethylamino-acetyl)-4-methyl-piperidin-4-yl]-amide]
